Two compounds from patent publication US20210113640A1, “COMPOSITION FOR PROMOTING HAIR GROWTH OR PREVENTING HAIR LOSS CONTAINING EXTRACT OF ASTER AGERATOIDES” (KOREA INSTITUTE OF SCIENCE AND TECHNOLOGY, priority 2019, published 2021) can be followed below.

The test system of experiment [1] is hair growth in C57BL/6 mice skin tissue. As to the kind of experiment: Induction of hair growth phase in depilated C57BL/6 mice (topical, 30 days). It counts as in vivo. The note with it: applied once a day for 30 days. Here is the method: 6-week-old C57BL/6 female mice with white or pink back skin were used as experimental animals and the experiment was conducted according to guidelines for the management and use of laboratory animals approved by the Animal Research Ethics Committee of the Korea Institute of Science and Technology (approval number: […]-2018-081). […] The back hairs of the mice were depilated using an electric shaver and a test substance was applied to the depilated area once a day for 30 days. […] 30 days after treatment with the sample, the hairs were randomly collected, the thickness and length of the hairs were measured, and the results are shown in FIG. 3 and Table 1. On the last day of application of the test substance, the mice were sacrificed to obtain skin tissues, and then tissues were fixed with paraffin and then prepared into tissue slices. These were stained with hematoxylin and eosin (H&E) and observed under a microscope (100×), and the results are shown in FIG. 4.

The test system of experiment [2] is lipid peroxide production in liver homogenate. As to the kind of experiment: Inhibition of lipid peroxide formation in rat liver homogenate (TBA method). The experiment is classed as biochemical, Sprague-Dawley rats. The note with it: positive controls, FeSO4/ascorbic acid, 37° C., 30 minutes, mean ± standard error, read-out: Lipid peroxide production inhibitory activity IC50. Here is the method:
Lipid peroxide is a substance produced by peroxidation of lipids through various oxidation reactions. Reactive oxygen species, free radicals and the like oxidize phospholipids of cell membranes containing great amounts of unsaturated fatty acids, producing lipid peroxides in the cell membranes. […] The animals used in the experiment were male Sprague-Dawley rats, and only water was supplied for 24 hours before the experiment.

[3] abbreviates: A. ageratoides 1%, minoxidil 3%.

Usually IC50 stands for the concentration that inhibits the measured activity by half.

In experiment [1] (1% Aster ageratoides extract, 3% minoxidil), `Nc1cc(N2CCCCC2)nc(N)[n+]1[O-]` [Minoxidil, minoxidil] gave a hair thickness of 53.19±4.04 μm. Further, in experiment [1] (setting [3]), the Hair length is recorded as 6-9 mm and the Hair width was determined as 53.2 ± 4.04 µm. This compound also returned a Hair length in experiment [1] (A. ageratoides 1%, minoxidil 3%, listed as positive control) of 6 to 9 mm.

On to `Cc1c(C)c2c(c(C)c1O)CCC(C)(C(=O)O)O2` (centres unmarked) [Trolox], for which the 50% inhibitory concentration (IC50) in experiment [2] was more than 100 µM.
